Experimental data reported in ChEMBL document CHEMBL6078643, “Palladium-Mediated Bioorthogonal System for Prodrug Activation of N-Benzylbenzamide-Containing Tubulin Polymerization Inhibitors for the Treatment of Solid Tumors” (J Med Chem, 2024).
Activity calls are given as the source filed them. The calls are words filed in the database; no cut-off is given here.

What was measured:
Tubulin (Homo sapiens) [1] = molecular target: T1, Tubulin (Homo sapiens) (UniProt P68371+Q9H4B7+P0DPH7+P68366+Q13509+Q71U36+P04350+Q3ZCM7+P07437+P68363+Q9BQE3+Q6PEY2+Q13885+Q9BVA1+Q9BUF5); assay: Inhibition of tubulin polymerization in human HepG2 cells assessed as decrease in polymerized alpha tubulin level at 80 nM incubated for 24 hrs in presence of palladium resins by Western blotting analysis; assay type: cell-based
HepG2 [2] = assay: Antiproliferative activity against human HepG2 cells assessed as reduction in cell viability incubated for 72 hrs by CCK-8 assay; assay type: functional, cell-based; details: HepG2, 72 h
H22 [3] = assay: Antiproliferative activity against mouse H22 cells assessed as reduction in cell viability incubated for 72 hrs by CCK-8 assay; assay type: functional, cell-based; details: H22, 72 h
HepG2 [4] = assay: Select factor, ratio of test compound IC50 to 5-fluoro-N-(3-hydroxy-4-methoxybenzyl)-2-morpholinobenzamide IC50 for antiproliferative activity against human HepG2 cells assessed as reduction in cell viability incubated for 72 hrs by CCK-8 assay; assay type: functional
H22 [5] = assay: Select factor, ratio of test compound IC50 to 5-fluoro-N-(3-hydroxy-4-methoxybenzyl)-2-morpholinobenzamide IC50 for antiproliferative activity against mouse H22 cells assessed as reduction in cell viability incubated for 72 hrs by CCK-8 assay; assay type: functional
K562 [6] = assay: Select factor, ratio of test compound IC50 to 5-fluoro-N-(3-hydroxy-4-methoxybenzyl)-2-morpholinobenzamide IC50 for antiproliferative activity against human K562 cells assessed as reduction in cell viability incubated for 72 hrs by CCK-8 assay; assay type: functional
[7] = Select factor, ratio of test compound IC50 to 5-fluoro-N-(3-hydroxy-4-methoxybenzyl)-2-morpholinobenzamide IC50 for antiproliferative activity against human THLE-2 cells assessed as reduction in cell viability incubated for 72 hrs by CCK-8 assay; assay type: toxicity, cell-based; details: read-out: Ratio IC50
K562 [8] = assay: Cytotoxicity against human K562 cells assessed as parent drug 5-fluoro-N-(3-hydroxy-4-methoxybenzyl)-2-morpholinobenzamide mediated decrease in cell viability at 100 nM in presence of palladium resins incubated for 72 hrs by CCK-8 assay; assay type: functional, cell-based
Tubulin (Homo sapiens) [9] = molecular target: T1, Tubulin (Homo sapiens); assay: Disruption of microtubule organization in human K562 cells at 80 nM incubated for 72 hrs in presence of palladium resins by DAPI staining based confocal microscopic analysis; assay type: cell-based
K562 [10] = assay: Induction of cell cycle arrest in human K562 cells assessed as accumulation of cells at G2/M phase at 80 nM incubated for 72 hrs in presence of palladium resins by PI staining based flow cytometric analysis ( Rvb = 8.5 %); assay type: functional
K562 [11] = assay: Induction of apoptosis in human K562 cells assessed as nucleus fragmentation at 80 nM incubated for 72 hrs in presence of palladium resins by Hoechst 33342 staining based fluorescent microscopic analysis; assay type: functional, cell-based
K562 [12] = assay: Induction of apoptosis in human K562 cells assessed as viable cells at 80 nM incubated for 72 hrs by Annexin V-APC staining based flow cytometric analysis (reference value: 94.21%); assay type: functional; details: read-out: Activity
K562 [13] = assay: Induction of apoptosis in human K562 cells assessed as early apoptotic cells at 80 nM incubated for 72 hrs by Annexin V-APC staining based flow cytometric analysis (reference value: 2.78%); assay type: functional
K562 [14] = assay: Induction of apoptosis in human K562 cells assessed as late apoptotic cells at 80 nM incubated for 72 hrs by Annexin V-APC staining based flow cytometric analysis (reference value: 1.36%); assay type: functional
K562 [15] = assay: Induction of apoptosis in human K562 cells assessed as necrotic cells at 80 nM incubated for 72 hrs by Annexin V-APC staining based flow cytometric analysis (reference value: 1.65%); assay type: functional
K562 [16] = assay: Induction of apoptosis in human K562 cells assessed as viable cells at 80 nM incubated for 72 hrs in presence of palladium resins by Annexin V-APC staining based flow cytometric analysis (reference value: 94.21%); assay type: functional; details: read-out: Activity
K562 [17] = assay: Induction of apoptosis in human K562 cells assessed as early apoptotic cells at 80 nM incubated for 72 hrs in presence of palladium resins by Annexin V-APC staining based flow cytometric analysis (reference value: 2.78%); assay type: functional
Tubulin (Homo sapiens) [18] = molecular target: T1, Tubulin (Homo sapiens); assay: Disruption of microtubule organization in human K562 cells assessed as appearance of slim microtubules at 80 nM incubated for 72 hrs by DAPI staining based confocal microscopic analysis; assay type: cell-based
Tubulin (Homo sapiens) [19] = molecular target: T1, Tubulin (Homo sapiens); assay: Disruption of microtubule organization in human K562 cells assessed as appearance of fibrous microtubules at 80 nM incubated for 72 hrs by DAPI staining based confocal microscopic analysis; assay type: cell-based
K562 [20] = assay: Induction of ROS generation in human K562 cells assessed as increase in DCF-positive cells at 80 nM incubated for 72 hrs in presence of palladium resins by DCF-DA staining based flow cytometric analysis (reference value: 7.67%); assay type: functional
HUVEC = assay: Antivascular activity against HUVEC cells assessed as inhibition of cell migration at 80 nM incubated for 24 hrs by phase contrast microscopic analysis; assay type: functional, cell-based; details: Homo sapiens
Tubulin (Homo sapiens) [21] = molecular target: T1, Tubulin (Homo sapiens); assay: Inhibition of tubulin polymerization in human HepG2 cells assessed as decrease in alpha tubulin expression at 80 nM incubated for 24 hrs in presence of palladium resins by Western blotting analysis; assay type: cell-based
Tubulin (Homo sapiens) [22] = molecular target: T1, Tubulin (Homo sapiens); assay: Inhibition of tubulin polymerization in human K562 cells assessed as decrease in alpha tubulin expression at 80 nM incubated for 24 hrs in presence of palladium resins by Western blotting analysis; assay type: cell-based
[23] = Toxicity in Balb/c mouse xenografted with human HepG2 cells assessed as change in body weight at 20 mg/kg, iv administered daily in presence of palladium resins for 14 days and measured every 2 days; assay type: organism-based; details: in vivo, 336 h, time 14 day
HepG2 [24] = assay: Antitumor activity against human HepG2 cells xenografted in Balb/c mouse assessed as cell necrosis at 20 mg/kg, iv administered daily for 14 days in presence of palladium resins by H and E staining based analysis; assay type: functional, organism-based; details: time 14.0 day
[25] = Toxicity in Balb/c mouse xenografted with human HepG2 cells assessed as effect on spleen at 20 mg/kg, iv administered daily in presence of palladium resins for 14 days by H and E staining based analysis; assay type: organism-based; details: in vivo, 336 h, time 14 day
[26] = Toxicity in Balb/c mouse xenografted with human HepG2 cells assessed as effect on kidney at 20 mg/kg, iv administered daily in presence of palladium resins for 14 days by H and E staining based analysis; assay type: organism-based; details: in vivo, 336 h, time 14 day
Tubulin (Homo sapiens) [27] = molecular target: T1, Tubulin (Homo sapiens); assay: In vivo inhibition of tubulin polymerization in human HepG2 cells xenografted in Balb/c mouse assessed as decrease in alpha tubulin expression at 20 mg/kg, iv administered daily for 14 days in presence of palladium resins incubated for 24 hrs by Western blot analysis; assay type: functional, organism-based; details: time 14.0 day

inhibition (Tubulin (Homo sapiens) [1]): Active
IC50 (HepG2 [2]): 1310 nM
Activity (Tubulin (Homo sapiens) [9]): Active
Activity (Tubulin (Homo sapiens) [18]): Active
Activity (Tubulin (Homo sapiens) [19]): Active
inhibition (Tubulin (Homo sapiens) [21]): Active
inhibition (Tubulin (Homo sapiens) [22]): Active
Activity (Tubulin (Homo sapiens) [27]): Active
Structure (SMILES): C#CCOc1cc(CNC(=O)c2cc(F)ccc2N2CCOCC2)ccc1OC
IC50 (H22 [3]): 805 nM
Ratio IC50 (HepG2 [4]): 68.3
Ratio IC50 (H22 [5]): 39.6
Ratio IC50 (K562 [6]): 69.1
selectivity ratio at 72 h [7]: 66.2
Activity (K562 [8]): Active
Activity (K562 [10]): 12.3%
Activity (K562 [11]): Active
viability at 0.08 µM (K562 [12]): 92.6%
Activity (K562 [13]): 4.26%
Activity (K562 [14]): 1.96%
Activity (K562 [15]): 1.26%
viability at 0.08 µM (K562 [16]): 45.4%
Activity (K562 [17]): 23.78%
Activity (K562 [20]): 54.85%
Activity (HUVEC): inactive
Activity [23]: Non-toxic
Activity (HepG2 [24]): Active
Activity [25]: Non-toxic
Activity [26]: Non-toxic
